From PubChem BioAssay AID588439 (The Scripps Research Institute Molecular Screening Center, 2011)
Active and inactive are the calls of the source.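 How the source made its calls: active means EC50 at or below 10 µM; inactive means EC50 above 10 µM.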

What follows are compounds tested against Insulin-degrading enzyme (Homo sapiens) (UniProt P14735) (assay: cellular IDE activation of Abeta substrate cleavage – fluorescence polarization, HEK cells, dose response (AID 588439)). Settings: endogenous IDE, FAbeta-B cleavage fluorescence polarization.
Insulin-degrading enzyme (Homo sapiens), sequence (P14735 whole entry, looked up): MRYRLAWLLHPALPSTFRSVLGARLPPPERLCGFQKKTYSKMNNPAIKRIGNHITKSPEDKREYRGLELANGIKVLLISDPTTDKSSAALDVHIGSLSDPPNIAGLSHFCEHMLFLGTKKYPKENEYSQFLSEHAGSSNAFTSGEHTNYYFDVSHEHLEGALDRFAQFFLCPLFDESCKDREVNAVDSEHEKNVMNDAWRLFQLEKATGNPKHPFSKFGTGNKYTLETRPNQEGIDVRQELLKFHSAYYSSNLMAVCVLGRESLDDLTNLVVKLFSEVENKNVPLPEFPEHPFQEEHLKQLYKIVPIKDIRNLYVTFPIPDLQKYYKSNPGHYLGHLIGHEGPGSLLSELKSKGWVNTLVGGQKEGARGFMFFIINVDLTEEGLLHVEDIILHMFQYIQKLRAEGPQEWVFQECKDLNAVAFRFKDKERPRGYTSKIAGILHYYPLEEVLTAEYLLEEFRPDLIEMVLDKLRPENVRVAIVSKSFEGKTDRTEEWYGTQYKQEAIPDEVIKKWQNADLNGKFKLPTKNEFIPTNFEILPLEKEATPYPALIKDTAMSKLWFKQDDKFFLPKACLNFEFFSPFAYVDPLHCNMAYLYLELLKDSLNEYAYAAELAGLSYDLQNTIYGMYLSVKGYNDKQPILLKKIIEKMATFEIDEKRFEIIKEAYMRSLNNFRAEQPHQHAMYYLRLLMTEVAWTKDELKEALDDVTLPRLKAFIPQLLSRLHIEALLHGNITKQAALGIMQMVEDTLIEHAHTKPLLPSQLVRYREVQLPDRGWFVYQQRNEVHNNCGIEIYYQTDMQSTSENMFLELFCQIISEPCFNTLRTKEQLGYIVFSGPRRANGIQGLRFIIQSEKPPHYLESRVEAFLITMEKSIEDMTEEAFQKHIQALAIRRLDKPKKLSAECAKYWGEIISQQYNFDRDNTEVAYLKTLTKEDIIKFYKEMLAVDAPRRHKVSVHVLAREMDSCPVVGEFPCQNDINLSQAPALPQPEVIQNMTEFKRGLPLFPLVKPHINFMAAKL

Compound	EC50
C#CCOCCOCCOCCNc1nc(N2CCN(C(=O)CCCCCCCCCCNC(=O)Cn3cc(C[C@@H](C)O)nn3)CC2)nc(N2CCN(C(=O)CCCCCCCCCCNC(=O)[C@H](CCCN=C(N)N)n3cc(C[C@@H](C)CC)nn3)CC2)n1	> 54.7 µM (inactive)
C#CCOCCOCCOCCNc1nc(N2CCN(C(=O)CCCCCCCCCCNC(=O)[C@H](CO)n3cc(CCCSC)nn3)CC2)nc(N2CCN(C(=O)CCCCCCCCCCNC(=O)[C@H](CCCCN)n3cc(CCO)nn3)CC2)n1	> 54.7 µM (inactive)
C#CCOCCOCCOCCNc1nc(N2CCN(C(=O)CCCCCCCCCCNC(=O)Cn3cc(CCCCCN)nn3)CC2)nc(N2CCN(C(=O)CCCCCCCCCCNC(=O)Cn3cc(C[C@@H](C)O)nn3)CC2)n1	> 54.7 µM (inactive)
C#CCOCCOCCOCCNc1nc(N2CCN(C(=O)CCCCCCCCCCNC(=O)[C@H](CCCCN)n3cc(CCO)nn3)CC2)nc(N2CCN(C(=O)CCCCCCCCCCNC(=O)[C@H](CCCN=C(N)N)n3cc(C[C@@H](C)CC)nn3)CC2)n1	> 54.7 µM (inactive)
